# Reference: the NIST ThermoML archive (doi:10.1021/je600527c)
# Numbers after ± are expanded uncertainties.
# Experiments:
# [1] = 298.15 K; 101.33 kPa; Liquid; Pycnometric method
# [2] = refractive index (Na D-line) (dimensionless); conditions: 298.15 K; 101.33 kPa; Liquid; Standard Abbe refractometry
smiles,measurement,setting,value
CC(=O)O [acetic acid],mass density,[1],1045 ± 8 kg/m3
same,refractive index,[2],1.37 ± 0.001
